Read-outs that look alike come from different tables or passages of the source.
Tests used:
[1] = target: T1, E. faecium (EfmFtsZ) (Enterococcus faecium, UniProt Q3Y2I1); test: Fluorescence anisotropy binding of BOFP to EfmFtsZ; conditions: for Kd: 50 mM Tris-HCl (pH 7.6), 50 mM KCl, 0.1 µM BOFP
T1 sequence (Q3Y2I1 1-413): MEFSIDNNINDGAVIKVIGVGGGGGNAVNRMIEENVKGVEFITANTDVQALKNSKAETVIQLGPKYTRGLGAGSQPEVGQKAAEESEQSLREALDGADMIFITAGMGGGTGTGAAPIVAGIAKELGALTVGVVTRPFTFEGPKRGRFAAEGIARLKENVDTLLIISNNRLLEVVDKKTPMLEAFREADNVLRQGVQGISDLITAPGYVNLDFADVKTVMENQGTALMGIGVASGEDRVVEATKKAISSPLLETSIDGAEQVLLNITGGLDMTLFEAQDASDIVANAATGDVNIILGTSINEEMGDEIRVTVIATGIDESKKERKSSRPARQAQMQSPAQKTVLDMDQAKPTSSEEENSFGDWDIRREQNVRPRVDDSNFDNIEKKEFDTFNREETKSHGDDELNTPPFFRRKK
Description: (§1) Fluorescence anisotropy experiments were performed using an AVIV model ATF105 spectrofluorometer at 15, 25, or 37 °C. In these experiments, bandwidths were set to 4 nm in both the excitation and emission directions, with the excitation and emission wavelengths being set at 488 nm and 510 nm, respectively. BOFP (0.1 µM) was titrated with increasing concentrations (ranging from 0 to 12 µM) of FtsZ in 120 µL of buffer containing 50 mM Tris-HCl (pH 7.6) and 50 mM KCl. After each protein addition, the samples were equilibrated for 3 minutes, whereupon the fluorescence anisotropy was measured.
(§2) In this equation, r0 is the anisotropy of the protein-free compound, r∞ is the anisotropy of the compound in the presence of an infinite concentration of FtsZ, [C]tot is the total concentration of the compound, and [P]tot is the total concentration of protein with each addition. These analyses yielded the equilibrium dissociation constant (Kd) for each binding reaction.
(§3) The binding free energy (ΔG) at temperature T was derived from the corresponding Kd value determined at T using the following relationship:2 ΔG=−RTln(1/Kd)
(§4) The binding enthalpy (ΔH) and entropy (ΔS) were derived from linear fits of the ln(1/Kd) vs. 1/T plots shown in Figs. 3f and 5e using the following relationship:3 ln(1/Kd)=−ΔH/R(1/T)+ΔS/R

[2] = target: S. pyogenes (SpyFtsZ) (Streptococcus pyogenes, UniProt Q99YV7); test: Fluorescence anisotropy binding of BOFP to SpyFtsZ; conditions: for Kd: 50 mM Tris-HCl (pH 7.6), 50 mM KCl, 0.1 µM BOFP
Description: as §1, §2, §3, §4
In comparative control experiments, the anisotropy of 0.1 µM BODIPY FL-COOH or BOFP alone or in the presence of SaFtsZ (10 µM), SpyFtsZ (10 µM), KpFtsZ (2 µM), or PaFtsZ (2 µM) was measured at 37 °C in the same buffer described above.

[3] = target: T2, S. pneumoniae (SpnFtsZ) (Streptococcus pneumoniae, UniProt A0A0H2ZNE0); test: Fluorescence anisotropy binding of BOFP to SpnFtsZ; conditions: for Kd: 50 mM Tris-HCl (pH 7.6), 50 mM KCl, 0.1 µM BOFP
T2 sequence (A0A0H2ZNE0 1-419): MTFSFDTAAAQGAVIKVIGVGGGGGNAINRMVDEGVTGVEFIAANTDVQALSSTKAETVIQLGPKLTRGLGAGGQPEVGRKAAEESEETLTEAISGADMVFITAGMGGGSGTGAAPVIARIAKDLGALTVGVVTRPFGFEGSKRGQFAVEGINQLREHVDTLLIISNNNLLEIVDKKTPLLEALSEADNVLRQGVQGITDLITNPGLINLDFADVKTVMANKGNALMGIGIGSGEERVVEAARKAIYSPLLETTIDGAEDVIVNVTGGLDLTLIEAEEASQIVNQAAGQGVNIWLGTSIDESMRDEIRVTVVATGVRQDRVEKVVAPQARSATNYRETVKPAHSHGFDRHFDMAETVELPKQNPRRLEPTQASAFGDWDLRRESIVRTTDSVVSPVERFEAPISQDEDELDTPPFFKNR
Description: as §1, §2, §3, §4

[4] = test system: MRSA LAC FtsZ-mCherry; test: Colocalization of BOFP labeling with induced FtsZ-mCherry fusion protein; assay type: cell-based, Staphylococcus aureus; conditions: 1 µg/mL BOFP for 5 minutes; vehicle-treated and 1-treated cells
Description: All differential interference contrast (DIC) and fluorescence microscopy experiments were conducted using an Olympus BX50 microscope equipped with an X-cite Exacte 200 W mercury lamp, a 100× Olympus UPLSAPO oil immersion objective (1.40 aperture), as well as both Chroma ET-EGFP (FITC/Cy2) and ET mCherry, Texas Red filters. Images were captured using a QImaging Retiga R3 charge-coupled device (CCD) camera and the Ocular-Version 2.0 software package (QImaging).
To visualize the impact of treating MRSA LAC FtsZ-mCherry with 1, cells were grown to log-phase in CAMH broth and diluted to an OD600 of 0.1. […] Following this treatment, 1–5 mL of each culture was centrifuged at 15,000 × g for 1 minute and washed twice with 1 mL of PBS. The resulting cell pellets were further processed and labeled with BOFP as described above for the Gram-positive bacterial strains.

[5] = from linear fit of ln(1/Kd) vs. 1/T
[6] = calculated at T = 310 K (37 °C) from Kd

S. pyogenes (SpyFtsZ), sequence (Q99YV7 entry or part of it): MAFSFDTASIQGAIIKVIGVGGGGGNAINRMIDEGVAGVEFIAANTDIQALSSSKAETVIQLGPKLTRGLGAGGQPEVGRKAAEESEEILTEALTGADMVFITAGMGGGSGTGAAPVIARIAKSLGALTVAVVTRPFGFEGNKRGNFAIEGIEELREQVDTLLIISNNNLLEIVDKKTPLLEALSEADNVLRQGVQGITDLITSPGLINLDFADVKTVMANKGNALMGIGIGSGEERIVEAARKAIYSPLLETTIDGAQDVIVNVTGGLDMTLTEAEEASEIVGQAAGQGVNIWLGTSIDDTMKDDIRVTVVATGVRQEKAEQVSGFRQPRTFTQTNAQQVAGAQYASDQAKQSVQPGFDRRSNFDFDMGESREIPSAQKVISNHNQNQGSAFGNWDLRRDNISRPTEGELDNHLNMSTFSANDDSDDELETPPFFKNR

CC1=CC(C)=[N+]2C1=Cc1ccc(CCC(=O)OCC(Oc3ccc(F)c(C(N)=O)c3F)c3nc(-c4ccc(C(F)(F)F)cc4)c(Br)o3)n1[B-]2(F)F (stereo not drawn) [BOFP]
Kd ([1]; 15 °C, read-out: Kd - 15 °C): 2500 ± 140 nM | Kd ([1]; 25 °C, read-out: Kd - 25 °C): 2620 ± 80 nM | Kd ([1]; 37 °C, read-out: Kd - 37 °C): 3140 ± 220 nM | ΔH [1, 5]: -1.9 ± 0.6 kcal/mol | Kd ([2]; 15 °C, read-out: Kd - 15 °C): 910 ± 60 nM | Kd ([2]; 25 °C, read-out: Kd - 25 °C): 1310 ± 80 nM | Kd ([2]; 37 °C, read-out: Kd - 37 °C): 1550 ± 80 nM | ΔG [2, 6]: -8.2 ± 0.1 kcal/mol | ΔH [2, 5]: -4.3 ± 1.1 kcal/mol | Kd ([3]; 15 °C, read-out: Kd - 15 °C): 3020 ± 300 nM | Kd ([3]; 25 °C, read-out: Kd - 25 °C): 3490 ± 250 nM | Kd ([3]; 37 °C, read-out: Kd - 37 °C): 3810 ± 690 nM | ΔG [3, 6]: -7.7 ± 0.1 kcal/mol | ΔH [3, 5]: -1.9 ± 0.3 kcal/mol | Colocalization of BOFP green fluorescence with FtsZ-mCherry red fluorescence [4]: colocalizes with the red fluorescence
